The NIST ThermoML archive (doi:10.1021/je2009413)

Columns and labels:
[1] = osmotic coefficient (dimensionless); mn = molality of the nth substance listed, in mol/kg; conditions: 298.15 K, Liquid, isopiestic method
[2] = mean ionic activity coefficient (dimensionless); mn = molality of the nth substance listed, in mol/kg; conditions: 298.15 K, Liquid, Isopiestic method

CC[N+](CC)(CC)C(C)(C)C [N,N,N-triethyl-2-methyl-2-propanaminium] + O
Conditions	mean ionic activity coefficient, [2]	osmotic coefficient, [1]
m1 = 0.0342	0.7642	0.899
m1 = 0.0403	0.7444	0.891
m1 = 0.0449	0.7306	0.88
m1 = 0.0576	0.6966	0.862
m1 = 0.0639	0.6816	0.853
m1 = 0.0679	0.6725	0.847
m1 = 0.0754	0.6564	0.841
m1 = 0.088	0.6318	0.832
m1 = 0.0953	0.6187	0.82
m1 = 0.0994	0.6116	0.824
m1 = 0.1082	0.5972	0.808
m1 = 0.1645	0.5222	0.771
m1 = 0.1658	0.5208	0.771
m1 = 0.195	0.4905	0.75
m1 = 0.2257	0.4629	0.731
m1 = 0.2308	0.4586	0.723
m1 = 0.271	0.4282	0.706
m1 = 0.3095	0.4031	0.678
m1 = 0.3407	0.3851	0.671
m1 = 0.3517	0.3792	0.668
m1 = 0.383	0.3635	0.651
m1 = 0.4265	0.3439	0.634
m1 = 0.4648	0.3286	0.62
m1 = 0.5151	0.3106	0.604
m1 = 0.553	0.2985	0.592
m1 = 0.5917	0.2871	0.584
m1 = 0.61	0.2821	0.577
m1 = 0.7078	0.2583	0.554
m1 = 0.7607	0.2473	0.541
m1 = 0.8399	0.2327	0.524
m1 = 0.8805	0.2259	0.52
m1 = 0.9759	0.2118	0.509
m1 = 1.08	0.1986	0.49
m1 = 1.162	0.1896	0.487
m1 = 1.272	0.1791	0.473
m1 = 1.391	0.1693	0.459
m1 = 1.56	0.1579	0.452
m1 = 1.693	0.1504	0.455
m1 = 1.771	0.1466	0.449
m1 = 1.786	0.1459	0.454
m1 = 1.83	0.144	0.45
m1 = 1.924	0.1401	0.453
m1 = 1.99	0.1377	0.451
m1 = 2.231	0.1303	0.465

CCCC[N+](CC)(CCCC)CCCC.[I-] [N,N-dibutyl-N-ethyl-1-butanaminium iodide] + O
Conditions	mean ionic activity coefficient, [2]	osmotic coefficient, [1]
m1 = 0.0378	0.6891	0.814
m1 = 0.0449	0.6605	0.799
m1 = 0.0501	0.6414	0.789
m1 = 0.0653	0.5922	0.761
m1 = 0.0727	0.5712	0.749
m1 = 0.0776	0.5582	0.741
m1 = 0.0868	0.5355	0.731
m1 = 0.1035	0.499	0.707
m1 = 0.1121	0.4824	0.698
m1 = 0.1191	0.4695	0.688
m1 = 0.1288	0.4528	0.679
m1 = 0.2082	0.3515	0.614
m1 = 0.2083	0.3515	0.609
m1 = 0.2503	0.3142	0.584
m1 = 0.292	0.2842	0.565
m1 = 0.3027	0.2774	0.551
m1 = 0.3652	0.2431	0.524
m1 = 0.4254	0.217	0.493
m1 = 0.4783	0.1981	0.478
m1 = 0.498	0.1919	0.471
m1 = 0.547	0.1778	0.456
m1 = 0.6197	0.1601	0.436
m1 = 0.6878	0.1461	0.419
m1 = 0.7684	0.1322	0.405
m1 = 0.8453	0.1209	0.388
m1 = 0.908	0.1127	0.381
m1 = 0.9478	0.108	0.371
m1 = 1.128	0.09	0.347
m1 = 1.231	0.0816	0.335
m1 = 1.337	0.0739	0.33
m1 = 1.405	0.0695	0.326
m1 = 1.548	0.0611	0.321
m1 = 1.652	0.0557	0.321
m1 = 1.751	0.051	0.323
m1 = 1.825	0.0478	0.33
m1 = 1.91	0.0443	0.334
m1 = 2.042	0.0393	0.345
m1 = 2.173	0.0349	0.354
m1 = 2.216	0.0335	0.359
m1 = 2.239	0.0328	0.362
m1 = 2.276	0.0317	0.362
m1 = 2.339	0.0299	0.372
m1 = 2.38	0.0288	0.377
m1 = 2.583	0.0236	0.402

CCCC[N+](CC)(CC)CCCC.[I-] [N-butyl-N,N-diethylbutan-1-aminium iodide] + O
Conditions	mean ionic activity coefficient, [2]	osmotic coefficient, [1]
m1 = 0.0372	0.7064	0.828
m1 = 0.0441	0.6798	0.813
m1 = 0.0491	0.6621	0.805
m1 = 0.0634	0.6174	0.782
m1 = 0.0706	0.5976	0.772
m1 = 0.0749	0.5865	0.768
m1 = 0.0839	0.5647	0.756
m1 = 0.0992	0.5317	0.738
m1 = 0.1069	0.5166	0.731
m1 = 0.1133	0.5048	0.723
m1 = 0.1221	0.4896	0.716
m1 = 0.1938	0.3939	0.654
m1 = 0.1969	0.3912	0.649
m1 = 0.2338	0.3566	0.625
m1 = 0.2705	0.3248	0.61
m1 = 0.2758	0.3213	0.605
m1 = 0.3292	0.2868	0.581
m1 = 0.3751	0.2634	0.559
m1 = 0.4189	0.2415	0.546
m1 = 0.4343	0.2351	0.541
m1 = 0.4687	0.2213	0.532
m1 = 0.5317	0.2037	0.508
m1 = 0.58	0.1904	0.497
m1 = 0.6463	0.1748	0.481
m1 = 0.7082	0.166	0.463
m1 = 0.758	0.1556	0.456
m1 = 0.7808	0.1521	0.451
m1 = 0.9199	0.1348	0.426
m1 = 0.9899	0.1266	0.416
m1 = 1.1	0.1171	0.401
m1 = 1.178	0.1131	0.389
m1 = 1.324	0.1042	0.375
m1 = 1.426	0.0988	0.371
m1 = 1.548	0.0944	0.366
m1 = 1.66	0.0909	0.362
m1 = 1.76	0.0885	0.363
m1 = 1.926	0.0852	0.366
m1 = 2.042	0.0821	0.377
m1 = 2.078	0.0809	0.383
m1 = 2.108	0.0807	0.384
m1 = 2.136	0.0802	0.386
m1 = 2.179	0.0789	0.4
m1 = 2.218	0.0782	0.405
m1 = 2.389	0.0748	0.434
